According to publication PMC8597046, “Use of Mixture Dosing and Nonlinear Mixed Effect Modeling of Eight Environmental Contaminants in Rabbits to Improve Extrapolation Value of Toxicokinetic Data” (Environmental Health Perspectives, 2021):
Like-named read-outs stand apart in the source and are kept apart here.

What was measured:
in vivo [1] = settings: female, rabbit, in vivo, iv
Procedure, shortened: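 Female New Zealand white rabbits received a compound mixture IV via ear-vein catheter; serum sampled sparsely (3 rabbits/time point) from 15 min to 28 d. Noncompartmental sparse-data analysis on mean profiles: linear-trapezoidal AUC, CL as dose/AUC0−inf, half-life from λZ, MRT and VSS.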

in vivo [2] = settings: female, rabbit, in vivo, po
Procedure, shortened: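 Female New Zealand white rabbits (10-wk, 2.37±0.14kg) got the compound mixture IV via ear-vein catheter or orally into the mouth; serum sampled 15 min to 28 d, 3 (or 6 at 30 min) rabbits per time. Sparse-data noncompartmental analysis gave AUC (linear trapezoidal), CL or CL_F, half-life and F.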

[3] = rabbit, in vivo; cited from earlier work
[4] = New Zealand white (INRA 1777 line)
[5] = New Zealand white, Serum concentration
[6] = New Zealand white (INRA 1777 line), Serum concentration

Clc1c(Cl)c(Cl)c(Cl)c(Cl)c1Cl [HCB, hexachlorobenzene]
AUC(0-inf) (in vivo [1]; [4]): 4.52 µM·h
Cmax (in vivo [1]; [4]): 19 nM
MRT (in vivo [1]; [4]): 23 days
clearance (in vivo [1]; [4]): 0.85 mL/min/kg
half-life (in vivo [1]; [4]): 17.2 days
Vd (in vivo [1]; New Zealand white (INRA 1777 line), VSS): 28.1 L/kg
Vd (in vivo [1]; New Zealand white (INRA 1777 line), VZ): 30.5 L/kg
Serum concentration (in vivo [1]; New Zealand white, 24 h): 7.1 nM
Serum concentration (in vivo [1]; New Zealand white, 168 h): 6.4 nM
concentration at 0.6 h (in vivo [1]; [5]): 11 nM
concentration at 0.67 h (in vivo [1]; [5]): 19 nM
concentration at 0.77 h (in vivo [1]; [5]): 15 nM
concentration at 24 h (in vivo [1]; [5]): 8.2 nM
concentration at 24.03 h (in vivo [1]; [5]): 6.1 nM
concentration at 71.97 h (in vivo [1]; [5]): 4.2 nM
concentration at 72 h (in vivo [1]; [5]): 5.8 nM
concentration at 72.03 h (in vivo [1]; [5]): 6.5 nM
concentration at 167.92 h (in vivo [1]; [5]): 4.1 nM
concentration at 168 h (in vivo [1]; [5]): 5.2 nM
concentration at 671.83 h (in vivo [1]; [5]): 2.7 nM
concentration at 671.96 h (in vivo [1]; [5]): 2.3 nM
AUC(0-inf) (in vivo [2]; [4]): 340 µM·h
CL/F (in vivo [2]; [4]): 1.33 mL/min/kg
Cmax (in vivo [2]; [4]): 505 nM
MRT (in vivo [2]; [4]): 46.5 days
Tmax (in vivo [2]; [4]): 1 days
Vd/F (in vivo [2]; [4]): 95 L/kg
bioavailability (in vivo [2]; [4]): 64%
half-life (in vivo [2]; [4]): 34 days
Serum concentration (in vivo [2]; New Zealand white (INRA 1777 line), 24 h): 370 nM
concentration at 0.57 h (in vivo [2]; [6]): 66 nM
concentration at 23.98 h (in vivo [2]; [6]): 370 nM
concentration at 24 h (in vivo [2]; [6]): 640 nM
concentration at 168 h (in vivo [2]; [6]): 290 nM
concentration at 671.96 h (in vivo [2]; [6]): 160 nM
Serum concentration (in vivo [2]; New Zealand white, 72 h): 400 nM
concentration at 71.96 h (in vivo [2]; [5]): 490 nM
concentration at 72 h (in vivo [2]; [5]): 220 nM
concentration at 168 h (in vivo [2]; [5]): 240 nM
concentration at 168.02 h (in vivo [2]; [5]): 240 nM
half-life [3]: 32 days
